We go through one compound from patent publication US20020155172A1, “Methods and compounds for decreasing cell toxicity or death” (priority 2000, published 2002).

Molecules are shown by their SMILES.

The subject of experiment [1] is HeLa cells transfected with Q79-GFP. Kind of experiment: Cellular ATP levels (ATPLite) in Q79 expressing HeLa cells. The class given is cell-based. Here is the method: We also investigated whether Congo red prevented other cellular events during cell death, including ATP depletion, caspase activation, and protein synthesis inhibition. HeLa cells were transfected with the Q79-GFP construct. Forty-eight hours later, the viability of cells expressing expanded polyglutamine repeats was determined by measuring cellular ATP levels, suing an ATPLite™ kit, according to the directions provided by the manufacturer (Packard, Co.) (FIG. 5A).
To determine the effect of Congo red (100 μM) on polyglutamine-induced cell toxicity. HeLa cells were transiently transfected with Q79-GFP, and six hours later were administered various concentrations of Congo red. Cell viability was assayed 72 hours after transfection, by measuring the level of ATP in each sample. ATP levels in cells expressing Q79 were determined by using the ATPLite™ kit as recommended by the manufacturer (Packard, Inc.). Briefly, cells were transfected with Q79 and treated 6 hours after transfection. Forty-two hours later, the levels of ATP were determined. (FIG. 5C).
A high-throughput method for identifying compounds that decrease cell toxicity or death has been designed. In this method, cells were seeded at 2×10^5 cells in 100 mm dishes. The next day the plated cells were transiently transfected with a plasmid encoding an expanded polyglutamine repeat, for example, Q79. Three hours later, transfection efficiency was assessed. Plates containing cells having 10-20% transfection efficiency at this 3 hour time point were trypsinized and re-plated at 600 or at 1500 cells per well in 384 well plates with clear bottoms. After 6 hours, the candidate compounds were added to the multi-well plates. The cells were cultured for 48 hours and ATP levels were determined using an ATPLite™ kit. Data was then expressed in either arbitrary units, or as relative ratio of ATP levels in Q79 transfected cells in compound-treated relative to vehicle-treated samples.
Derivatives of Congo red (commercially available from Sigma/Aldrich) were tested for their ability to alter cell toxicity and death by measuring ATP depletion and luciferase expression. The assay was carried out as described above for the high-throughput identification of compounds. Briefly, HeLa cells were transiently transfected with a Q79/GFP plasmid and were subsequently treated with various concentrations of Congo red, or 25 μM of each of Direct Orange 6, Direct Red 1, Direct Orange 1, Direct Black 51, Direct Orange 8, Direct Yellow 26, Direct Yellow 28, or Direct Blue 158. Drug treatment continued for 6 hours and then 48 hours later, ATP levels were measured in these cells and compared to the ATP levels in cells that were transiently transfected with GFP only, and also received the compound.
(Cellular ATP, detected with luciferase, serves as a proxy for viable cell number.)

A further experiment concerns R62 mice. Nature of the experiment: EM48 immunostaining of polyglutamine aggregates in brain. It counts as in vivo. The protocol: To test whether Congo red can disrupt and inhibit the formation of expanded polyglutamine oligomers in vivo, we analyzed the brain samples from control- and Congo red-treated […] mice. Mice were anesthetized with isoflurane, perfused intracardially with 4% paraformaldehyde in phosphate buffered saline (pH 7.4). The brain was removed and washed several times in PBS before overnight incubation in PBS containing 30% sucrose, and was then embedded in OTC (Sigma, MO.). Cryostat frozen sections were washed in PBS, and non-specific binding was blocked with 5% normal goat serum in PBS containing 0.1% Triton. Sections were stained using an anti-EM48 antibody at a 1:1000 dilution, and immunoreactivity was detected using the ABC kit, as described by the manufacturer (Vector, Co.). Some slides were lightly counter stained with hematoxylin.

Experiment [2] has as its system Q79-Q79 interaction (Q79-ECFP/EYFP-Q79). Kind of experiment: FRET-Q79 assay. The class given is biochemical. The settings on record: aggregates treated with 100 Congo red; 488 nm excitation, 527 nm emission. The text has this:
To rule out the possibility that Congo red merely disrupts large polyglutamine aggregates without affecting oligomeric polyglutamine interaction that may be invisible to fluorescence microscopy, we designed a FRET-Q79 assay. In this assay, the expression constructs EYFP-Q79 (enhanced yellow fluorescent protein fused to a polypeptide containing 79 polyglutamines) and Q79-ECFP (enhanced cyan fluorescent protein fused to a polypeptide containing 79 polyglutamines) were co-transfected into HeLa cells. The EYFP-HAQ79 was made by ligation of a SacI/Notl digested insert from HA-Q79 CMX (Sanchez et al., 1999, supra) into the plasmid CFP-C1, described by Sanchez et al. (supra) after Sac1 digestion and blunting. […]
The lysates were passed through a needle to ensure release of polyglutamine inclusions from the nuclei. […] The fluorescence resonance energy transfer (FRET) was determined from polyglutamine oligomers formed in Q79-ECFP/EYFP-Q79 expressing cells upon addition of PBS or Congo red. Specifically, the interaction of the tagged Q79 polypeptides was detected by immunofluorescence at 488 nm excitation and 527 nm emission for FRET using a Wallach plate reader, and the ratio of the immunofluorescence was determined. Immunofluorescence levels were also detected for each ECFP and EYFP independent of the effect of Congo red on fluorescence emission wavelengths.

`Nc1c(/N=N/c2ccc(-c3ccc(/N=N/c4cc(S(=O)(=O)O)c5ccccc5c4N)cc3)cc2)cc(S(=O)(=O)O)c2ccccc12` [Congo red, diphenyldiazo-bis-alpha-napthylaminesulfonate]: the “protection from polyglutamine repeat-induced cell death (ATP levels)” value in experiment [1] (25 or 50 μM, Q79-GFP) is reported as “very effective at protecting cells”. For the same compound, in experiment [1] (HA-tagged Q79-GFP, caspase-8 experiment), the ATP loss result is on record as “significantly inhibited ATP loss”. The “concentration at which protection from polyglutamine repeat-induced cell death begins (ATP levels)” value in experiment [1] (Q79-GFP, treated six hours after transfection) was found to be 12 µM. For the same compound, the “EM48 positive polyglutamine aggregates in the cortex and hippocampus” value in the experiment with R62 mice (R62 mice) is listed as “reduction of EM48 positive polyglutamine aggregates”. Moreover, the “expanded polyglutamine repeats in the basal ganglia (EM48)” value in the experiment on R62 mice (R62 mice 12.5 weeks old) is “Extensive clearance of expanded polyglutamine repeats”. Further, the FRET ratio result in experiment [2] is on record as “significantly reduced”.
